# Source: patent publication US20260103474A1, “NOVEL COMPOUNDS FOR THE DIAGNOSIS OF TDP-43 PROTEINOPATHIES” (AC IMMUNE SA, priority 2022, published 2026)
# What was measured:
# [1] = biological target: human FTD Type A sarkosyl-insoluble brain extracts (Homo sapiens, UniProt Q13148); assay: Kd determination by micro-radiobinding assay on FTD Type A extracts; type: binding; details: tritiated compound 1.29 to 300 nM
# Experimental: Human brain extracts were prepared as described in Laferriere et al., 2019, Nature Neurosc. A sample of brain tissue (frontal or temporal cortex) was homogenized at 1:4 (w/v) ratio in the homogenization-solubilization (HS) buffer at 4° C. using tissue homogenizer (Precellys) with CKmix homogenization tubes. The following sequence was used for homogenization: 3 cycles of 30 seconds at 5000 rpm (with 15 seconds pause between each cycle). Homogenized samples were aliquoted and stored at −80° C. in 1.5 mL low protein binding tubes.
# Brain homogenates were thawed on ice and resuspended in HS buffer to obtain a final concentration of 2% sarkosyl, 1 unit/μL Benzonase and 1 mM MgCl2. The samples were then incubated at 37° C. under constant shaking at 600 rpm on a thermomixer for 45 minutes (min). The supernatants were collected in a new tube (sarkosyl-soluble fraction, S1). The pellet was resuspended in 1000 μL of myelin floatation buffer and centrifuged at 20,000 g for 60 min at 4° C. The supernatant was carefully removed to remove all the floating lipids. This step was repeated if all the lipids could not be removed in a single step. The pellet was subsequently washed with Phosphate-Buffered Saline (PBS) and centrifuged for 30 min at 20,000 g at 4° C. The final pellet was resuspended in 200 μL PBS and stored at −80° C. (sarkosyl-insoluble fraction). The samples were analyzed by immunoblotting in denaturing conditions.
# Human FTD sarkosyl-insoluble brain extracts were spotted onto microarray slides. The slides were incubated with [^3H]-Compounds 1, 7, 8, 9, 15, 16 and 17 in a range of concentrations, varying from 1.29 to 300 nM. After incubation, slides were washed and scanned by a real-time autoradiography system (BeaQuant, ai4R). Quantification of the signal was performed by using the Beamage image analysis software (ai4R). Non-specific signal was determined with an excess of non-radiolabeled compound 1, 7, 8, 9, 15, 16 and 17 (1 μM), respectively, and specific binding was calculated by subtracting the non-specific signal from the total signal.
# The Kd (Dissociation constant) and R^2 (parameter ranging between 0.0 and 1.0 that quantifies the goodness of fit, and the best curve fit obtained with value of 1.0) were obtained by fitting the specific binding data with non-linear regression analysis, using a one-site specific binding model in GraphPad Prism8.
# TDP-43 aggregates = TDP-43 aggregates (Homo sapiens, UniProt Q13148); assay: Micro-autoradiography staining in brain sections from patients with FTD; type: binding; parameters: from tissue; host or cells: frozen post-mortem human brain sections (FTLD-TDP type A and type B; non-demented controls in the classical autoradiography); details: FTLD-TDP type A brain sections; 120 nM
# Experimental: All tissues were collected from donors for or from whom a written informed consent for a brain autopsy and the use of the material and clinical information for research purposes had been obtained by the respective brain banks. All samples were anonymized and coded. Frozen brain tissue blocks with confirmed TDP-43 pathology upon autopsy were processed using a cryotome to generate sections of 10 μm in thickness and mounted on glass slides. Sections were kept at −80° C. until use.
# Brain sections were immunostained using a commercially available antibody, specific for phosphorylated serine at amino acid 409/410 (anti-pTDP-43 pS409/410, Biolegend, 829901). Sections were fixed for 15 minutes at 4° C. with 4% formaldehyde (Sigma, 252549) and washed three times for height minutes with 1×PBS (Dulbecco's phosphate buffered saline, Sigma D1408) at room temperature. Next, sections were saturated and permeabilized in blocking buffer (PBS, 10% normal goat serum (NGS), 0.25% Triton X-100) for one hour at room temperature and incubated overnight at 4° C. with primary antibody against pTDP-43 (diluted at 1/500 in PBS, 5% NGS, 0.25% Triton X-100). The following day, sections were washed three times for height minutes with 1×PBS before incubation with a secondary, AlexaFluor633-labeled goat-anti-rat antibody (Invitrogen, A-21094, diluted at 1/500 in PBS) for 45 minutes at room temperature. Following incubation with […] antibodies the sections were washed three times in PBS before being processed further.
# For micro-autoradiography, tritiated test compound ([^3H]-Compound 1, [^3H]-Compound 9 or [^3H]-Compound 17 respectively) was incubated on the sections at 120 nM in 50 mM Tris buffer pH 7.4 for 45 minutes at room temperature. Sections were then washed as follows: once in ice-cold 50 mM Tris-HCl pH 7.4 buffer for one minute, twice in ice-cold 70% ethanol for one minute, once in ice-cold 50 mM Tris-HCl pH 7.4 buffer for one minute and finally rinsed briefly in ice-cold distilled water. Sections were subsequently dried for one hour under a stream of air and then exposed to Ilford Nuclear Emulsion Type K5 (Agar Scientific, AGP9281) for ten days at 4° C. in a light-proof slide storage box. The sections were developed by immersing them successively in the following solutions: 1.) Ilford Phenisol Developer (1:5 dilution in H2O, Agar Scientific, AGP9106) for four minutes, 2.) Ilfostop solution (1:20 dilution in H2O, Agar Scientific, AGP9104) for two minutes, 3.) Ilford Hypam Fixer (1:5 dilution in H2O, Agar Scientific, AGP9183) for four minutes and finally rinsed with H2O for 10 minutes.
# For image acquisition, sections were mounted using ProLong Gold Antifade reagent (Invitrogen P36930) and imaged on a Panoramic250 Slide Scanner (3DHistech) with a 40× objective capturing brightfield and fluorescent images separately or on a Panoramic Scan II (3DHistech) with a 20× objective. The Visiopharm image analysis software suite was used to align the fluorescent image with the brightfield image.
# TDP-43 aggregates, sequence (Q13148 whole entry): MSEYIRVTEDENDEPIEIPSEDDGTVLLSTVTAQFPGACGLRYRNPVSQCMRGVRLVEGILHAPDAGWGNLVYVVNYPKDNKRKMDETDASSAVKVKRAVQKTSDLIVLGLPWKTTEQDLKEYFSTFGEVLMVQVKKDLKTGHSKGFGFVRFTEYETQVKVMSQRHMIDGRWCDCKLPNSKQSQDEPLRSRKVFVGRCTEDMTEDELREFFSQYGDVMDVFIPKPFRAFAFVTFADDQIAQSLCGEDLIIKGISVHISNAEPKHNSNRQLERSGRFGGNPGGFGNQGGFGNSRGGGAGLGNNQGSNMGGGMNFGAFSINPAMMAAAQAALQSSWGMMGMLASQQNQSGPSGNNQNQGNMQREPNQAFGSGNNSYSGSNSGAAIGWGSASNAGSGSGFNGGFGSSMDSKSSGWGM
# human FTD Type A sarkosyl-insoluble brain extracts, sequence (Q13148 263-414 limits assumed): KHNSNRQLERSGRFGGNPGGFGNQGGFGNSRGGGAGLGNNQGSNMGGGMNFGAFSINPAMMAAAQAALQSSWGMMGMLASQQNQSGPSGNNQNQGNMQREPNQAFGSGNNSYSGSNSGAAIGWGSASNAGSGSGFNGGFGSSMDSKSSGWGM
compound,measurement,setting,value
"[3H]c1cncc(N2CCc3nc(-c4cc([3H])c(N5CCCC5)nc4F)sc3C2=O)c1 [[^3H]-Compound 9, Tritiated 2-(2-fluoro-6-(pyrrolidin-1-yl)pyridin-3-yl)-5-(pyridin-3-yl)-6,7-dihydrothiazolo[5,4-c]pyridin-4(5H)-one]",Kd,[1],26 nM
same,Micro-autoradiography silver grain signal versus pTDP-43 immunostaining,TDP-43 aggregates,colocalization with pTDP-43 aggregates
